In ChEMBL document CHEMBL3044734, “Major secondary metabolites produced by two commercial Trichoderma strains active against different phytopathogens” (2006):

How the values were obtained:
Format in all cases: functional
[1] = tested on: Rhizoctonia solani; test: Antimicrobial activity against Rhizoctonia solani assessed as colony diameter at 1 ug/plug after 3 days ( Rvb = 2.95 +/- 0.11 cm)
[2] = tested on: Rhizoctonia solani; test: Antimicrobial activity against Rhizoctonia solani assessed as colony diameter at 0.1 ug/plug after 3 days ( Rvb = 2.95 +/- 0.11 cm)
[3] = tested on: Rhizoctonia solani; test: Antimicrobial activity against Rhizoctonia solani assessed as colony diameter at 200 ug/plug after 3 days ( Rvb = 2.95 +/- 0.11 cm)
[4] = tested on: Globisporangium ultimum; test: Antimicrobial activity against Pythium ultimum assessed as colony diameter at 10 ug/plug after 3 days ( Rvb = 8.50 cm)
[5] = tested on: Rhizoctonia solani; test: Antimicrobial activity against Rhizoctonia solani assessed as colony diameter at 100 ug/plug after 3 days ( Rvb = 2.95 +/- 0.11 cm)
[6] = tested on: Globisporangium ultimum; test: Antimicrobial activity against Pythium ultimum assessed as colony diameter at 0.01 ug/plug after 3 days ( Rvb = 8.50 cm)
[7] = tested on: Rhizoctonia solani; test: Antimicrobial activity against Rhizoctonia solani assessed as colony diameter at 10 ug/plug after 3 days ( Rvb = 2.95 +/- 0.11 cm)
[8] = tested on: Globisporangium ultimum; test: Antimicrobial activity against Pythium ultimum assessed as colony diameter at 0.1 ug/plug after 3 days ( Rvb = 8.50 cm)
[9] = tested on: Globisporangium ultimum; test: Antimicrobial activity against Pythium ultimum assessed as colony diameter at 200 ug/plug after 3 days ( Rvb = 8.50 cm)
[10] = tested on: Gaeumannomyces tritici; test: Antimicrobial activity against Gaeumannomyces graminis var. tritici assessed as colony diameter at 0.1 ug/plug after 3 days ( Rvb = 1.40+/- 0.8 cm)
[11] = tested on: Gaeumannomyces tritici; test: Antimicrobial activity against Gaeumannomyces graminis var. tritici assessed as colony diameter at 0.01 ug/plug after 3 days ( Rvb = 1.40+/- 0.8 cm)
[12] = tested on: Globisporangium ultimum; test: Antimicrobial activity against Pythium ultimum assessed as colony diameter at 1 ug/plug after 3 days ( Rvb = 8.50 cm)
[13] = tested on: Gaeumannomyces tritici; test: Antimicrobial activity against Gaeumannomyces graminis var. tritici assessed as colony diameter at 100 ug/plug after 3 days ( Rvb = 1.40+/- 0.8 cm)
[14] = tested on: Gaeumannomyces tritici; test: Antimicrobial activity against Gaeumannomyces graminis var. tritici assessed as colony diameter at 200 ug/plug after 3 days ( Rvb = 1.40+/- 0.8 cm)
[15] = tested on: Gaeumannomyces tritici; test: Antimicrobial activity against Gaeumannomyces graminis var. tritici assessed as colony diameter at 10 ug/plug after 3 days ( Rvb = 1.40+/- 0.8 cm)
[16] = tested on: Globisporangium ultimum; test: Antimicrobial activity against Pythium ultimum assessed as colony diameter at 100 ug/plug after 3 days ( Rvb = 8.50 cm)
[17] = tested on: Rhizoctonia solani; test: Antimicrobial activity against Rhizoctonia solani assessed as colony diameter at 0.01 ug/plug after 3 days ( Rvb = 2.95 +/- 0.11 cm)
[18] = tested on: Gaeumannomyces tritici; test: Antimicrobial activity against Gaeumannomyces graminis var. tritici assessed as colony diameter at 1 ug/plug after 3 days ( Rvb = 1.40+/- 0.8 cm)

SMILES	Activity [1]	Activity [2]	Activity [3]	Activity [4]	Activity [5]	Activity [6]	Activity [7]	Activity [8]	Activity [9]	Activity [10]	Activity [11]	Activity [12]	Activity [13]	Activity [14]	Activity [15]	Activity [16]	Activity [17]	Activity [18]
C/C=C/C=C/CC1=C(CC(C)O)C(=O)OC1 (stereo unspecified) [HARZIANOLIDE]	2.5 cm	2.83 cm	2.35 cm	8.5 cm	2.7 cm	8.5 cm	3.05 cm	8.5 cm	7.6 cm	1.25 cm	1.05 cm	8.5 cm	1.25 cm	0.7 cm	1.1 cm	8.5 cm	2.8 cm	1.43 cm
C/C=C/CC(C)C(=O)c1c(O)c(OC)c(OC)[nH]c1=O (stereo unspecified) [HARZIANOPYRIDONE]	1.2 cm	2.53 cm		8.5 cm	0 cm	8.5 cm	0 cm	8.5 cm		0.7 cm	0.98 cm	8.5 cm	0 cm		0 cm	7.9 cm	2.73 cm	0 cm
C/C=C/C=C/C1=CC2=CC(=O)[C@](C)(OC(=O)[C@H](C)O)C(=O)C2=CO1 [T22AZAPHILONE]	1.9 cm	2.83 cm		5.2 cm	0 cm	8.5 cm	0 cm	8.5 cm		1.13 cm	1.18 cm	8.3 cm	0 cm		0 cm	0 cm	2.9 cm	0 cm
C/C=C/C=C/CC1=C(CC(C)=O)C(=O)OC1 [T39BUTENOLIDE]	2.4 cm	2.5 cm	0 cm	8.5 cm	0 cm	8.5 cm	2.13 cm	8.5 cm	6.35 cm	1.13 cm	1.2 cm	8.5 cm	0 cm	0 cm	1.23 cm	8.05 cm	2.73 cm	1.1 cm
